The NIST ThermoML archive (doi:10.1016/j.fluid.2006.11.005)

Experiments:
[1] = xn = mol fraction of the nth substance listed; conditions: 101.33 kPa, Liquid
[2] = 101.33 kPa, Liquid

c1ccccc1 [benzene] + ClC(Cl)Cl
[1], x2 = 0
Conditions | mass density [kg/m3]
288.15 K | 884.246
293.15 K | 878.918
298.15 K | 873.582
303.15 K | 868.233
308.15 K | 862.871
313.15 K | 857.498

ClC(Cl)Cl [trichloromethane]
[2]
Conditions | mass density [kg/m3]
288.15 K | 1498.08
293.15 K | 1488.64
298.15 K | 1479.15
303.15 K | 1469.61
308.15 K | 1460.03
313.15 K | 1450.41

CCO [ethanol] + ClC(Cl)Cl
[1], x1 = 1
Conditions | mass density [kg/m3]
288.15 K | 793.721
293.15 K | 789.454
298.15 K | 785.164
303.15 K | 780.853
308.15 K | 776.51
313.15 K | 772.138

CCO [ethanol]
[2]
Conditions | mass density [kg/m3]
288.15 K | 793.721
293.15 K | 789.454
298.15 K | 785.164
303.15 K | 780.853
308.15 K | 776.51
313.15 K | 772.138

ClC(Cl)Cl [trichloromethane] + c1ccccc1
mass density [kg/m3], [1]
Conditions | 288.15 K | 293.15 K | 298.15 K | 303.15 K | 308.15 K | 313.15 K
x1 = 0.1001 | 939.224 | 933.584 | 927.935 | 922.271 | 916.586 | 910.883
x1 = 0.2 | 995.529 | 989.568 | 983.589 | 977.59 | 971.567 | 965.527
x1 = 0.3072 | 1057.3 | 1050.96 | 1044.61 | 1038.23 | 1031.82 | 1025.38
x1 = 0.3995 | 1111.96 | 1105.29 | 1098.58 | 1091.85 | 1085.08 | 1078.27
x1 = 0.4997 | 1172.45 | 1165.38 | 1158.28 | 1151.15 | 1143.98 | 1136.78
x1 = 0.6 | 1234.48 | 1226.99 | 1219.47 | 1211.92 | 1204.33 | 1196.74
x1 = 0.6652 | 1275.68 | 1267.9 | 1260.09 | 1252.24 | 1244.34 | 1236.41
x1 = 0.7991 | 1362.32 | 1353.91 | 1345.46 | 1336.97 | 1328.42 | 1319.82
x1 = 0.8009 | 1363.45 | 1355.03 | 1346.58 | 1338.09 | 1329.56 | 1321.04
x1 = 0.9 | 1429.59 | 1420.68 | 1411.71 | 1402.7 | 1393.63 | 1384.52
x1 = 1 | 1498.08 | 1488.64 | 1479.15 | 1469.61 | 1460.03 | 1450.41

c1ccccc1 [benzene]
[2]
Conditions | mass density [kg/m3]
288.15 K | 884.246
293.15 K | 878.918
298.15 K | 873.582
303.15 K | 868.233
308.15 K | 862.871
313.15 K | 857.498
